In article PMC9699003, “Arene Variation of Highly Cytotoxic Tridentate Naphthoquinone-Based Ruthenium(II) Complexes and In-Depth In Vitro Studies” (Pharmaceutics, 2022):

Tests used:
[1] = tested on: SW480 colon carcinoma cells; conditions: SW480, MTT, 96 h exposure; cited from earlier work
pUC19 plasmid = tested on: pUC19 plasmid; parameters: method as in PMID 34115482; conditions: cited from earlier work
[2] = tested on: A549 non-small cell lung cancer cells; conditions: A549, MTT, 96 h exposure; cited from earlier work
[3] = HPLC-MS stability measurements in PBS; conditions: PBS pH 7.4, 20 °C, 40 µM
Procedure: 4 µL of stock solution was mixed with 990 µL of PBS buffer (pH 7.4) and 6 µL DMSO to obtain a final concentration of 40 µM. After injection, the chromatogram at 225 nm and the corresponding mass spectra (positive mode) were recorded hourly (4 h) and after 24 h at 20 °C. Peak areas were determined by integrating complex signals of the respective chromatogram. The measurements were performed with an HPLC system (Agilent Technologies, […]) equipped with a C18 column (Waters, Atlantis T3 […], 1.0 × 150 mm^2) coupled to an MS (Bruker, amaZon SL, ESI, positive mode) with a flow rate of 0.2 mL/min at 20 °C and a gradient (5–95%) with Milli-Q water/ACN.

CH1/PA-1 cells = assay: DCFH-DA assay (ROS levels); assay type: cell-based, human; conditions: CH1/PA-1, DCFH-DA, up to 2 h

Row | Compound | IC50 [1] [µM] | Influence on pUC19 (in words) (pUC19 plasmid) | IC50 [2] [µM] | Percentage amount of initial complex remaining ([3]; after 4 h) | ROS level, T/C (treated vs negative control) (CH1/PA-1 cells) | Percentage amount of initial complex remaining ([3]; after 24 h)
1 | CC1=C(O)C(=O)c2ccccc2C1=O [L, 2-Hydroxy-3-methyl-1,4-naphthoquinone] | 116 ± 37 | only a minor influence on pUC19 | 210 ± 32 |  |  | 
2 | CC1=C([O-])C([O-])(n2cccn2)c2ccccc2C1=O.Cc1c(C)c(C)c(C)c(C)c1C.[Ru+2] (stereo not drawn) [Compound 6] |  |  |  | less than 70% |  | 
3 | CC1=C([O-])C([O-])(n2cccn2)c2ccccc2C1=O.Cc1ccc(C(C)C)cc1.[Ru+2] (racemic) [Compound 1] | 0.094 ± 0.031 | only a minor influence on pUC19 | 1.2 ± 0.2 |  | ≈ 0.5 | more than 70%
